Values after ≈ are worked out from the molar mass of the structure shown.
What was measured:
[1] = tested on: Mycobacterium tuberculosis; experiment: Antitubercular activity against Mycobacterium tuberculosis H37Rv measured after 7 days under aerobic condition; format: functional, organism-based; conditions: 168 h
[2] = tested on: Mycobacterium tuberculosis; experiment: Antimicrobial activity against Mycobacterium tuberculosis H37Rv expressing bacterial luciferase measured after 10 days under hypoxia condition by LORA assay; format: functional; conditions: 240 h
[3] = tested on: Mycobacterium tuberculosis; experiment: Antitubercular activity against Mycobacterium tuberculosis H37Rv measured after 5 days under aerobic condition by two-fold serial dilution method; format: functional; conditions: 120 h
[4] = tested on: Mycobacterium tuberculosis; experiment: Bactericidal activity against Mycobacterium tuberculosis H37Rv measured upto 21 days; format: functional; conditions: 504 h
[5] = tested on: Mycobacterium tuberculosis; experiment: Antitubercular activity against Mycobacterium tuberculosis H37Rv expressing bacterial luciferase infected murine J774 macrophage cells assessed as reduction in cell count at 20 uM measured after 4 days by luminescence analysis; format: functional
[6] = tested on: Mycobacterium tuberculosis; experiment: Antitubercular activity against Mycobacterium tuberculosis H37Rv expressing bacterial luciferase infected murine J774 macrophage cells assessed as reduction in cell count at 200 uM measured after 4 days by luminescence analysis; format: functional

| Compound | IC50 [1] | IC90 [1] | MIC [1] | MIC [2] | MIC [3] | MBC [4] | Activity [5] | Activity [6] |
| --- | --- | --- | --- | --- | --- | --- | --- | --- |
| CCCC[C@H](CNC)N1CCN(CCC23CC4CC(CC(C4)C2)C3)[C@H](C(C)CC)C1 (stereo partly drawn) | 21.2 µM | 33.7 µM | 50 µM (≈ 20.9 µg/mL) | – | – | – | – | – |
| CCC(C)[C@H](CNC)N1CCN(CCC23CC4CC(CC(C4)C2)C3)[C@H](C(C)C)C1 (stereo partly drawn) | 37.4 µM | 99.5 µM | 100 µM (≈ 40.4 µg/mL) | – | – | – | – | – |
| CCCC[C@@H](CNC)N1CCN(CCC23CC4CC(CC(C4)C2)C3)[C@H](C(C)C)C1 | 51.8 µM | 61.4 µM | 100 µM (≈ 40.4 µg/mL) | – | – | – | – | – |
| CCCC[C@@H](CNC)N1CCN(CCC23CC4CC(CC(C4)C2)C3)[C@H](C(C)CC)C1 (stereo partly drawn) | 29.6 µM | 54.2 µM | 100 µM (≈ 41.8 µg/mL) | – | – | – | – | – |
| CCC(C)[C@H](CNC)N1CCN(CCC23CC4CC(CC(C4)C2)C3)[C@H](CO)C1 (stereo partly drawn) | – | > 100 µM | > 100 µM | – | – | – | – | – |
| CNC[C@@H](CC(C)C)N1CCN(CCc2ccc(C)cc2)CC1 | > 200 µM | > 200 µM | > 200 µM | – | – | – | – | – |
| CCCC[C@H](CNC)N1CCN(CCC23CC4CC(CC(C4)C2)C3)[C@H](C(C)C)C1 | 47.5 µM | 65.5 µM | 100 µM (≈ 40.4 µg/mL) | – | – | – | – | – |
| CNCCN1CCN(CCC23CC4CC(CC(C4)C2)C3)[C@H](C(C)C)C1 | – | > 100 µM | > 100 µM | – | – | – | – | – |
| CNC[C@@H](Cc1ccccc1)N1CCN(CCC23CC4CC(CC(C4)C2)C3)CC1 | 38 µM | 99 µM | 61.2 µM (≈ 24.2 µg/mL) | 74 µM (≈ 29.3 µg/mL) | 36 µM (≈ 14.2 µg/mL) | 100 µM (≈ 39.6 µg/mL) | 0 log10CFU | 2.7 log10CFU |
| CCC(C)[C@@H]1CN([C@@H](CNC)Cc2ccccc2)CCN1CCC12CC3CC(CC(C3)C1)C2 (stereo partly drawn) | 17 µM | 38 µM | 37.7 µM (≈ 17 µg/mL) | 9.8 µM (≈ 4.43 µg/mL) | 41 µM (≈ 18.5 µg/mL) | 5 µM (≈ 2.26 µg/mL) | 2.4 log10CFU | 2.4 log10CFU |
| CNC[C@@H](CO)N1CCN(CCC(c2ccccc2)c2ccccc2)[C@H](CC2CCCCC2)C1 | 22 µM | 50 µM | 48.4 µM (≈ 22.4 µg/mL) | – | – | – | – | – |
| CNC[C@@H](Cc1ccccc1)N1CCN(CC2CCC(C)CC2)[C@H](C(C)C)C1 (stereo partly drawn) | – | 85.5 µM | > 100 µM | – | – | – | – | – |
| CNC[C@@H](Cc1ccccc1)N1CCN(CCC(c2ccccc2)c2ccccc2)CC1 | 23 µM | > 61 µM | 52.3 µM (≈ 22.4 µg/mL) | > 200 µM | 69 µM (≈ 29.5 µg/mL) | 20 µM (≈ 8.55 µg/mL) | 2.4 log10CFU | 2.4 log10CFU |
| CNC[C@H](Cc1ccccc1)N1CCN(CCC23CC4CC(CC(C4)C2)C3)[C@H](CO)C1 | 54.6 µM | 66.1 µM | 100 µM (≈ 42.6 µg/mL) | – | – | – | – | – |
| CNC[C@@H](CO)N1CCN(CCc2ccc(C)cc2)[C@H](CC2CCCCC2)C1 | 67 µM | 160 µM | 200 µM (≈ 77.5 µg/mL) | – | – | – | – | – |
| CNC[C@H](Cc1ccccc1)N1CCN(CCc2c[nH]c3ccccc23)[C@H](C(C)C)C1 | – | 88.1 µM | > 100 µM | – | – | – | – | – |
| CCCC[C@@H](CNC)N1CCN(CCc2c[nH]c3ccccc23)[C@H](C(C)C)C1 | – | 85.3 µM | > 100 µM | – | – | – | – | – |
| CCC(C)[C@@H]1CN([C@H](CNC)Cc2ccccc2)CCN1CCC12CC3CC(CC(C3)C1)C2 (stereo partly drawn) | 20.2 µM | 35.5 µM | 50 µM (≈ 22.6 µg/mL) | – | – | – | – | – |
| CNC[C@@H](Cc1ccccc1)N1CCN(CCC23CC4CC(CC(C4)C2)C3)[C@H](CO)C1 | – | 75.6 µM | > 100 µM | – | – | – | – | – |
| CCC(C)[C@@H](CNC)N1CCN(CCc2ccc(C)cc2)CC1 (stereo partly drawn) | 37 µM | 110 µM | 93.9 µM (≈ 29.8 µg/mL) | – | – | – | – | – |
| CNC[C@@H](Cc1ccccc1)N1CCN(CCC23CC4CC(CC(C4)C2)C3)[C@H](C(C)C)C1 | 20.7 µM | 37 µM | 50 µM (≈ 21.9 µg/mL) | 52.2 µM (≈ 22.8 µg/mL) | 14 µM (≈ 6.13 µg/mL) | 114 µM (≈ 49.9 µg/mL) | 2.22 log10CFU | – |
| CCC(C)[C@H](CNC)N1CCN(CCc2c[nH]c3ccccc23)[C@H](C(C)C)C1 (stereo partly drawn) | – | > 100 µM | > 100 µM | – | – | – | – | – |
| CCCC[C@@H](CNC)N1CCN(CCC23CC4CC(CC(C4)C2)C3)[C@H](CO)C1 | – | 70.6 µM | > 100 µM | – | – | – | – | – |
| CC[C@H](C)[C@@H]1CN([C@@H](CNC)Cc2ccccc2)CCN1CC(C)(C)C | 190 µM | > 200 µM | > 200 µM | – | – | – | – | – |

From ChEMBL document CHEMBL3792319, “Synthesis and antitubercular activity of 1,2,4-trisubstitued piperazines” (Bioorg Med Chem Lett, 2016)
